Assay results: US20070043062A1, “Isoxazoles as peptide deformylase inhibitors” (Arpida A/S, priority 2003, published 2007)

Legend:
S. aureus, PDF enzyme = molecular target: T1, S. aureus, PDF enzyme (Staphylococcus aureus, UniProt P68826); experiment: Bacterial peptide deformylase (PDF) assay, colorimetric cell free, f-Met-Ala substrate, TNBS detection at 420 nm; type: biochemical; conditions: means of three experiments; 30 minutes at room temperature, pH 7.2; read-out: PDF enzyme inhibitory activity IC50, S. aureus, PDF enzyme
T1 sequence (P68826 1-183): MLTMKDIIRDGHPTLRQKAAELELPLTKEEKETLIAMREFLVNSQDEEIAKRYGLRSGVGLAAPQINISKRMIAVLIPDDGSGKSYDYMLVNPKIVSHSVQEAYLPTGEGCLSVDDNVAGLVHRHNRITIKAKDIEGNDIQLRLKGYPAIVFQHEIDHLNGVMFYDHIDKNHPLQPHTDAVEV
Source text: To find inhibitors of Peptide Deformylase (PDF), a colorimetric cell free assay for measuring the enzymatic activity of PDF has been adapted to the microtiter plate format (96 wells). The assay comprises three components, purified PDF, f-Met-Ala as substrate and TNBS as the detecting agent of primary amino groups. The resulting TNP-NH-Met-Ala sulfite complex can be detected at 420 nm. PDF enzymes, containing Fe^2+ as the native metal, are purified and are stabilized by the addition of tris(2-carboxyethyl)phosphine (TCEP).
(§1) The IC50 value of a compound of the invention as a bacterial PDF inhibitor was determined using the following assay.
(§2) Assay buffer: 0.1M MOPS pH was adjusted to 7.2 with NaOH, containing 0.25 M NaCl, 100 μg/mL catalase and 1 mg/mL BSA.
S. aureus (15 mg/ml) 10 μl+990 μl Assay buffer, 0.3 μl per ml enzyme mix.
(§3) Substrate mix: 10 mM f-Met-Ala was made up from 200 mM f-Met-Ala in methanol with assay buffer.
(§4) TNBS solution: Freshly dilute 1 M TNBS stock solution diluted 1:10 with water.
(§5) Buffer C, 0.5 M borate buffer adjusted to pH 9.5 with NaOH.
(§6) Buffer D: 0.2 ml of freshly prepared 0.5 M Na2SO3 was mixed with 9.8 mL of 0.5M NaH2PO4.
(§7) Inhibitor solution: 2 mM Sodium 4-(hydroxymercurio) benzoate in assay buffer.
(§8) Compound mix: Compound of formula I dissolved in DMSO in a 10 mg/mL stock solution. Further dilutions were made in DMSO in the concentration range between 0.05 to 100 mM.
The assay was performed in a 96 Microtiter plate containing test compound. To each well containing test compound mix was added 75 microliter of enzyme mix followed by the addition of 25 microliter of substrate mix. The resulting mix was incubated for 30 minutes at room temperature with shaking. TNBS solution (50 microliter/well) was added and the resulting mixture was incubated for 15 minutes under shaking. Buffer C was then added (20 microliter/well). After incubating at room temperature for 15 minutes under shaking, buffer D was added (50 microliter/well). The optical […] was then measured at 420 nm, thereby determining the IC50 value.

E. coli, PDF enzyme = E. coli, PDF enzyme (Escherichia coli, UniProt P0A6K3); experiment: as above; type: biochemical
Procedure: The assay comprises three components, purified PDF, f-Met-Ala as substrate and TNBS as the detecting agent of primary amino groups. The resulting TNP-NH-Met-Ala sulfite complex can be detected at 420 nm. PDF enzymes, containing Fe^2+ as the native metal, are purified and are stabilized by the addition of tris(2-carboxyethyl)phosphine (TCEP).
as §1, §2
E. coli enzyme (2.5 mg/ml) 10 μl+290 μl Assay buffer, 1 μl per ml enzyme mix.
as §3, §4, §5, §6, §7, §8
The assay was performed in a 96 Microtiter plate containing test compound. […] The optical diffraction was then measured at 420 nm, thereby determining the IC50 value.

E. coli, PDF enzyme, sequence (P0A6K3 whole entry): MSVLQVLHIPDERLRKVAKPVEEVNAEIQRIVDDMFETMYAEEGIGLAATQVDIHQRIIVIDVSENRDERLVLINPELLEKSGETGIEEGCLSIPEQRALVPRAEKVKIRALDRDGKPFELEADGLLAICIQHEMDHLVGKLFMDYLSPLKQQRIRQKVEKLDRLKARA

SMILES | melting point | IC50 (S. aureus, PDF enzyme) [µM] | IC50 (E. coli, PDF enzyme) [µM]
O=C(NO)c1cc(CSc2cccc(Cl)c2)on1 [Example 3, 5-(3-Chloro-phenylsulfanylmethyl)-isoxazole-3-carboxylic acid hydroxyamide] | 105 to 107 °C (dec.) | 2.3 | –
CC(C)c1ccccc1S(=O)(=O)Cc1cc(C(=O)NO)no1 [Example 36, 5-(2-Isopropyl-benzenesulfonylmethyl)-isoxazole-3-carboxylic acid hydroxyamide] | 170 °C (dec.) | 3.4 | –
O=C(NO)c1cc(CSc2ccc(Cl)c(Cl)c2)on1 [Example 5, 5-(3,4-Dichloro-phenylsulfanylmethyl)-isoxazole-3-carboxylic acid hydroxyamide] | 99 to 102 °C (dec.) | 2 | –
Cc1ccc(S(=O)(=O)Cc2cc(C(=O)NO)no2)cc1 [Example 33, 5-(4-Toluenesulfonylmethyl)-isoxazole-3-carboxylic acid hydroxyamide] | – | 1.4 | 11.5
COc1cccc(S(=O)(=O)Cc2cc(C(=O)NO)no2)c1 [Example 37, 5-(3-Methoxy-benzenesulfonylmethyl)-isoxazole-3-carboxylic acid hydroxyamide] | – | 6.5 | –
O=C(NO)c1cc(CSc2ccccc2Cl)on1 [Example 4, 5-(2-Chloro-phenylsulfanylmethyl)-isoxazole-3-carboxylic acid hydroxyamide] | 141 to 143 °C (dec.) | 3.8 | –
Cc1cc(C)c(SCc2cc(C(=O)NO)no2)c(C)c1 [Example 9, 5-(2,4,6-Trimethyl-phenylsulfanylmethyl)-isoxazole-3-carboxylic acid hydroxyamide] | 133 to 135 °C (dec.) | 37.7 | –
Cc1ccc([S+]([O-])Cc2cc(C(=O)NO)no2)cc1 (stereo not shown) [Example 38, 5-(4-Toluenesulfinylmethyl)-isoxazole-3-carboxylic acid hydroxyamide] | – | 0.9 | –
O=C(NO)c1cc(CSc2ccccc2C(F)(F)F)on1 [Example 14, 5-(2-Trifluoromethyl-phenylsulfanylmethyl)-isoxazole-3-carboxylic acid hydroxyamide] | 140 to 144 °C (dec.) | 9.3 | –
O=C(NO)c1cc(CS(=O)(=O)c2ccc(Cl)cc2)on1 [Example 34, 5-(4-Chloro-benzenesulfonylmethyl)-isoxazole-3-carboxylic acid hydroxyamide] | – | 0.8 | –
COc1cccc(SCc2cc(C(=O)NO)no2)c1 [Example 11, 5-(3-Methoxy-phenylsulfanylmethyl)-isoxazole-3-carboxylic acid hydroxyamide] | 116 °C | 2.2 | –
O=C(NO)c1cc(CSc2ccc(Cl)cc2)on1 [Example 2, 5-(4-Chloro-phenylsulfanylmethyl)-isoxazole-3-carboxylic acid hydroxyamide] | – | 1.3 | –
O=C(NO)c1cc(CSCc2cc3ccccc3s2)on1 [Example 16, 5-(Benzothiophen-2-ylmethylsulfanylmethyl)-isoxazole-3-carboxylic acid hydroxyamide] | 143 to 145 °C (dec.) | 12.7 | –
O=C(NO)c1cc(CSc2ccc(F)cc2)on1 [Example 12, 5-(4-Fluoro-phenylsulfanylmethyl)-isoxazole-3-carboxylic acid hydroxyamide] | 98 to 99 °C (dec.) | 1.5 | –
O=C(NO)c1cc(CSc2ccc(C(F)(F)F)cc2)on1 [Example 13, 5-(4-Trifluoromethyl-phenylsulfanylmethyl)-isoxazole-3-carboxylic acid hydroxyamide] | 129 °C | 8.7 | –
O=C(NO)c1cc(CS(=O)(=O)c2cccc(Cl)c2)on1 [Example 35, 5-(3-Chloro-benzenesulfonylmethyl)-isoxazole-3-carboxylic acid hydroxyamide] | – | 1.7 | –
CC(C)c1ccccc1SCc1cc(C(=O)NO)no1 [Example 8, 5-(2-Isopropyl-phenylsulfanylmethyl)-isoxazole-3-carboxylic acid hydroxyamide] | 121 to 123 °C (dec.) | 7.6 | –
CC(c1cc(C(=O)NO)no1)S(=O)(=O)c1ccc(Cl)cc1 (stereo not shown) | 162 °C (dec.) | – | –
O=C(NO)c1cc(CSc2ccccc2Br)on1 [Example 6, 5-(2-Bromo-phenylsulfanylmethyl)-isoxazole-3-carboxylic acid hydroxyamide] | 135 to 136 °C (dec.) | 4.9 | –
O=C(NO)c1cc(CSc2ccccc2OC(F)(F)F)on1 | 108 to 109 °C (dec.) | – | –
O=C(NO)c1cc(CSCc2cccc(C(F)(F)F)c2)on1 [Example 17, 5-(3-Trifluoromethyl-benzylsulfanylmethyl)-isoxazole-3-carboxylic acid hydroxyamide] | 109 to 110 °C | 2.2 | –
O=C(NO)c1cc(CSc2cccc(Br)c2)on1 [Example 7, 5-(3-Bromo-phenylsulfanylmethyl)-isoxazole-3-carboxylic acid hydroxyamide] | 104 to 105 °C | 2 | –
O=C(NO)c1cc(CSc2nccc(-c3cccs3)n2)on1 | 165 to 168 °C (dec.) | – | –
Cc1ccc(SCc2cc(C(=O)NO)no2)cc1 [Example 1, 5-(4-Toluenesulfanylmethyl)-isoxazole-3-carboxylic acid hydroxyamide] | 94 to 96 °C (dec.) | 4 | –
